Laboratory results: patent US9732076B2, “Solid oral dosage formulation of HCV inhibitor in the amorphous state” (Boehringer Ingelheim International GmbH, priority 2013, dated 2017)

Experiment: Ames test / genotoxicity of degradation product

For `C=C[C@@H]1C[C@]1(N)C(=O)O` [Compound X], which “Ames result / genotoxicity” value is on record?
The value was “Ames positive”.
